pIC50: −log10 of the molar value. Entries after “also recorded” stand apart in the source; their conditions may differ. Where no end group is shown, it is not given here.
Columns and labels:
[1] = biological target: T1, Aß25-35 (Homo sapiens, UniProt P05067); experiment: Aggregation inhibition checked by scanning electron microscope; type: biochemical; conditions: 0.1 mM peptide, 0.1 mM Aß25-35, 37° C., 4 hours, versus no peptide YS
Method: A reaction solution with the following composition was prepared in a 1.5-mL tube (manufactured by Eppendorf). After incubating at 37° C. for 4 hours, the reaction solution was centrifuged (12,000 rpm, 10 minutes), and a precipitate was collected. The collected precipitate was washed as follows: 200 μL of MilliQ water was added to the precipitate and the resultant mixture was centrifuged again (12,000 rpm, 10 minutes). This washing treatment was performed three times. Then, 100 μL of a 1% phosphotungstic acid solution was added to the collected precipitate. After the resultant mixture was left to stand for 5 minutes at room temperature, the precipitate was collected through centrifugation (12,000 rpm, 10 minutes), was washed by adding 200 μL of MilliQ water thereto, and was collected through centrifugation (12,000 rpm, 10 minutes). 100 μL of MilliQ water was added to the precipitate, and a suspension was formed using a Vortex mixer. The suspension was added to a glass slide and dried, followed by observation under a scanning electron microscope. [table]

[2] = biological target: T2, Aß25-35 aggregates (Homo sapiens, UniProt P05067); experiment: Dissociation of Aß25-35 aggregates checked by scanning electron microscope; type: biochemical; conditions: pre-formed aggregates; 100 μL of 0.05-mmol/L YS-11 or 1-mmol/L YS-16 solution added, 37° C., 5 days; versus no peptide
Method: A reaction solution with the following composition was prepared in a 1.5-mL tube (manufactured by Eppendorf) and incubated at 37° C. for 18 hours to form aggregates of the Aß25-35. Then, 100 μL of a peptide YS solution at a predetermined concentration was added to the reaction solution, and the resultant mixture was further incubated at 37° C. for 5 days. A 0.05-mmol/L YS-11 solution, a 1-mmol/L YS-16 solution, and a 1-mmol/L YS-6 solution were used as the peptide YS solution, and MilliQ water was used instead of the peptide YS solution as a control. After the incubation, centrifugation (12,000 rpm, 10 minutes) was performed to collect a precipitate. The precipitate was treated in the same manner as in Example 1(3) above, and was then observed under a scanning electron microscope. [table]

[3] = biological target: T1, Aß25-35; experiment: IC50 of YS peptide against Aß25-35 aggregation (ThT fluorescence); type: biochemical; conditions: 37° C., ThT added 2 hours after start of incubation, blank corrected, n=3
Method: Reaction solutions with different compositions, namely those with the following compositions (A, B, C, and D), were prepared and dispensed into wells such that the amount of the reaction solution per well was 200 μL. The concentration (X mmol/L) of the peptide YS (YS-11 or YS-16) in the YS solution to be added to the reaction solutions was set to 0.01, 0.05, 0.1, 0.5, and 1 mmol/L. The reaction solutions were incubated at 37° C., and 10 μL of 2-mmol/L ThT (reagent name “Thioflavine T”, manufactured by FUJIFILM Wako Pure Chemical Corporation) was added to each well 2 hours after the start of the incubation. Then, the fluorescence intensity was measured using the measurement device (n=3). The measurement wavelengths were set such that the excitation wavelength (ex) was 444 nm and the fluorescence wavelength (em) was 480 nm. [table] […] In FIG. 2, the vertical axes indicate the fluorescence intensity (unit: FI), and the horizontal axes indicate the concentration of the peptide YS (unit: μmol/L).

[4] = biological target: T1, Aß25-35; experiment: Inhibition of Aß25-35 aggregation, thioflavin T (ThT) fluorescence; type: biochemical; conditions: 0.1 mM peptide YS, 0.1 mM Aß25-35, 37° C., incubation 4 hours, n=3
Method: The peptides YS-11, YS-15, and YS-16 were used as the peptides YS of the examples. Each of the peptides was dissolved in MilliQ water to prepare three types of 1-mg/mL YS solutions.
An Aß-derived fragment peptide was used for aggregation of Aß. Aß25-35, which has high aggregability, was selected as the fragment peptide. The Aß25-35 is a peptide (SEQ ID NO: 7: GSNKGAIIGLM) constituted by 11 amino acid residues consisting of the twenty-fifth to thirty-fifth amino acid residues in the full length sequence of human-derived Aß (SEQ ID NO: 6). The Aß25-35 was dissolved in MilliQ water to prepare a 1-mmol/L Aß25-35 solution.
The fluorescent dye thioflavin T (ThT) binds to aggregates and emits strong fluorescence upon binding, and thus the increase or inhibition of aggregation can be determined by measuring the fluorescence intensity. Thus, the inhibition of aggregation of the Aß25-35 by each peptide YS was checked using ThT.
Specifically, a reaction solution with the following composition was prepared and dispensed into wells such that the amount of the reaction solution per well was 200 μL. After the reaction solution was incubated at 37° C. for a predetermined period of time (0 or 4 hours), 10 μL of 2-mmol/L ThT (reagent name “Thioflavine T”, manufactured by FUJIFILM Wako Pure Chemical Corporation) was added to each well, and the fluorescence intensity was measured using a measurement device (product name “Cytation5”, manufactured by BioTek) (n=3). The measurement wavelengths were set such that the excitation wavelength (ex) was 444 nm and the fluorescence wavelength (em) was 480 nm. As a control, a reaction solution to which water had been added instead of the peptide YS was also measured in the same way.

[5] = biological target: T2, Aß25-35 aggregates; experiment: Ability to dissociate pre-formed Aß25-35 aggregates (ThT fluorescence); type: biochemical; conditions: aggregates formed 18 hours at 37° C., then 100 μL of 1-mmol/L peptide added, 5 days
Method: First, a reaction solution with the following composition was prepared and incubated at 37° C. for 18 hours to form aggregates of the Aß25-35 in the reaction solution. 100 μL of a 1-mmol/L peptide YS (YS-5 or YS-16) was further added to the reaction solution, and the resultant mixture was incubated at 37° C. for 5 days. After the incubation, the reaction solution was dispensed into wells such that the amount of the reaction solution per well was 200 μL. Furthermore, 10 μL of 2-mmol/L ThT was added to each well, and the fluorescence intensity was measured using the measurement device (n=3). The measurement wavelengths were set such that the excitation wavelength (ex) was 444 nm and the fluorescence wavelength (em) was 480 nm. As a control, a reaction solution to which water had been added instead of the peptide YS was also measured in the same way. [table]

[6] = biological target: T2, Aß25-35 aggregates; experiment: Peptide YS concentration versus ability to dissociate Aß25-35 aggregates (ThT fluorescence); type: biochemical; conditions: 37° C.; for ability to dissociate Aß25-35 aggregates: 5 days after aggregate formation
Method: First, a reaction solution with the following composition was prepared, was dispensed into wells such that the amount of the reaction solution per well was 200 μL, and was incubated at 37° C. for 18 hours to form aggregates of the Aß25-35 in the reaction solution. 100 μL of an X-mmol/L peptide YS solution (YS-11 or YS-16) was further added to the reaction solution, and the resultant mixture was incubated at 37° C. for 5 days. The concentration (X mmol/L) of the peptide YS in the peptide YS solutions was set to […]. After the incubation, 10 μL of 2-mmol/L ThT was added to each well, and the fluorescence intensity was measured using the measurement device (n=3). The measurement wavelengths were set such that the excitation wavelength (ex) was 444 nm and the fluorescence wavelength (em) was 480 nm. As a control, a reaction solution (Aß25-35) to which water had been added instead of the peptide YS was also measured in the same way. [table]

[7] = test system: ICR mice to which Aß25-35 had been administered; experiment: Y-maze short-term memory test in mice given Aß25-35; type: in vivo
Method: The aggregation inhibiting peptide was further administered to mice to which the Aß25-35 had been administered, and then the effects of the aggregation inhibiting peptide was checked.
The Aß25-35 was dissolved in a saline solution to prepare a 3-mmol/L Aß25-35 solution. The Aß25-35 and the YS-11 were dissolved in a saline solution to prepare a mixed solution containing the Aß25-35 at a concentration of 3 mmol/L and the YS-11 at a concentration of 3 mmol/L. The YS-11 was dissolved in a saline solution to prepare a 10-mg/mL YS-11 solution. A saline solution (Saline) was used as a control.
ICR mice (6-week old) were prepared and divided into an Aß25-35 administration group (n=15), a control (Saline) administration group (n=15), a mixed solution administration group (n=6), and a peptide YS administration group (n=7).
The administration schedule was as follows: ventricular administration was performed on Day 1, and nasal administration was performed on Day 14, Day 17, Day 20, and Day 23. A microsyringe was used for the ventricular administration, and a Pipetman was used for the nasal administration. Specifically, the administration was performed on each administration group as follows. […]
Then, on Day 14 and Day 28, the short-term memory was evaluated using a Y-maze. […]

| Sequence | fibrous material / formation of aggregates under scanning electron microscope [1] | amount of fibrous aggregates under scanning electron microscope [2] | pIC50 [3] | fluorescence intensity compared with the control (Aß25-35 without peptide YS) [4] | control aggregates dissociated [5] [%] | fluorescence intensity relative to the control (Aß25-35) [5] [%] | aggregates dissociated (control Aß25-35 aggregates taken as 100%) ([6]; final concentration of 0.1 mmol/L, 5 days) [%] | ability to dissociate Aß25-35 aggregates ([6]; final concentration range of 0.01 to 0.1 mmol/L) | alternation rate in Y-maze ([7]; Day 14, ventricular coadministration on Day 1 of 9 nmol Aß25-35 and 9 nmol YS-11 (mixed solution), n=6) | alternation rate in Y-maze ([7]; Day 28, Aß25-35 ventricular on Day 1, then YS-11 nasal 74 nmol on Day 14, 17, 20, 23, n=7) | ability to dissociate Aß25-35 aggregates ([6]; final concentration range of 0.005 to 0.1 mmol/L) |
| --- | --- | --- | --- | --- | --- | --- | --- | --- | --- | --- | --- |
| RETLVYLTHLDYDDTE [YS-16, RETLVYLTHLDYDDTE] | substantially no fibrous material was observed | a decrease in the amount of fibrous aggregates | 6.22 | significantly lower; also recorded: considerably lower | 50 | 50 | 48 | excellent dissociating ability in a concentration-dependent manner | – | – | – |
| YKNMRETLVYLTHLD (aggregation inhibitor peptide) [YS-15] | – | – | – | significantly lower | – | – | – | – | – | – | – |
| RETLVYLTHLD [YS-11, RETLVYLTHLD] | decreased very significantly | a further decrease in the amount of fibrous aggregates | 5.44 | significantly lower; also recorded: considerably lower | – | – | – | – | as high as that of the control group | as high as that of the control group | excellent dissociating ability |

Source: patent US20240238365A1, “AMYLOID-Beta AGGREGATION INHIBITOR, PHARMACEUTICAL COMPOSITION FOR AMYLOID-Beta AGGREGATION DISEASES, AND USE APPLICATION OF SAME” (O-FORCE CO., LTD., priority 2021, published 2024)
